Values joined by “and” are separate entries in the source; they are usually repeats but may differ in a detail not shown here. Identical values can stand only once.
Tested on: HL60 (human promyelocytic leukemia) cells
Test: LMA-FlexMAP analysis of microtiter well cultures of HL60 cells treated with tretinoin or DMSO, KNN classification
[1] = HL60 microtiter plate wells tretinoin40-47 (replicates)

SMILES: CC1=C(/C=C/C(C)=C/C=C/C(C)=C/C(=O)O)C(C)(C)CCC1 [tretinoin, all-trans-retinoic acid]
- NM_000698 LUA#14 FlexMap level [1]: 45.5 and 156 and 269 and 394 and 342 and 297.5 and 363 and 352
- NM_000875 LUA#55 FlexMap level [1]: 184 and 1002 and 1389.5 and 1772 and 1303 and 1192 and 1271 and 810
- NM_000884 LUA#81 FlexMap level [1]: 82 and 506 and 875 and 897 and 732.5 and 789 and 805 and 513.5
- NM_000962 LUA#7 FlexMap level [1]: 63.5 and 391 and 761 and 776 and 470 and 646.5 and 671.5 and 452
- NM_001034 LUA#67 FlexMap level [1]: 65 and 447 and 989 and 779 and 733.5 and 645 and 1063 and 476
- NM_001101 LUA#34 FlexMap level [1]: 260.5 and 1606 and 2206 and 2257 and 1647 and 1943 and 1881 and 904
- NM_001469 LUA#79 FlexMap level [1]: 65 and 320.5 and 885 and 739 and 765 and 734 and 561 and 370
- NM_001498 LUA#18 FlexMap level [1]: 126.5 and 890.5 and 1632 and 1563.5 and 1134 and 1467 and 1510 and 888
- NM_001684 LUA#23 FlexMap level [1]: 884 and 3012 and 3316.5 and 3512 and 3036 and 2755.5 and 2662 and 1478
- NM_001948 LUA#84 FlexMap level [1]: 255 and 1430 and 2470.5 and 2273.5 and 1891 and 2131 and 2132.5 and 1104
- NM_001974 LUA#11 FlexMap level [1]: 38.5 and 98 and 351 and 256 and 258 and 253.5 and 286.5 and 224
- NM_002166 LUA#25 FlexMap level [1]: 411.5 and 1693.5 and 2999 and 2964 and 2068 and 1985 and 2518 and 1239
- NM_002358 LUA#53 FlexMap level [1]: 64 and 339 and 572 and 611 and 366 and 481 and 531 and 433
- NM_002467 LUA#90 FlexMap level [1]: 383 and 983.5 and 1643 and 1800 and 1920 and 1518 and 1725 and 1034
- NM_002468 LUA#40 FlexMap level [1]: 48 and 285.5 and 324 and 728 and 896.5 and 343 and 632 and 464
- NM_002539 LUA#74 FlexMap level [1]: 94 and 559 and 886 and 952 and 715 and 861.5 and 822 and 535
- NM_002624 LUA#36 FlexMap level [1]: 53 and 180.5 and 397 and 381 and 330.5 and 336 and 400.5 and 394
- NM_002664 LUA#38 FlexMap level [1]: 73 and 478 and 906 and 798 and 599 and 773 and 748 and 512
- NM_002970 LUA#42 FlexMap level [1]: 92 and 298 and 598 and 589 and 622.5 and 577.5 and 586 and 478
- NM_002982 LUA#45 FlexMap level [1]: 286 and 2331 and 2514 and 4037 and 4231 and 2722 and 2898 and 1696.5
- NM_003132 LUA#68 FlexMap level [1]: 41 and 126 and 264.5 and 264 and 195.5 and 257 and 296 and 327.5
- NM_003172 LUA#19 FlexMap level [1]: 818 and 3200.5 and 3348 and 3577.5 and 2983 and 2898 and 2747 and 1471
- NM_003332 LUA#43 FlexMap level [1]: 274 and 646 and 1341.5 and 1324 and 1984.5 and 1651 and 2226 and 1241.5
- NM_003581 LUA#62 FlexMap level [1]: 62.5 and 372 and 962 and 808 and 751 and 735.5 and 801 and 515
- NM_003644 LUA#17 FlexMap level [1]: 69 and 255 and 415 and 428 and 359 and 374 and 395 and 302
- NM_003752 LUA#82 FlexMap level [1]: 115.5 and 536.5 and 1061 and 1015.5 and 768.5 and 1020 and 912.5 and 596
- NM_003825 LUA#8 FlexMap level [1]: 81.5 and 192.5 and 338 and 383.5 and 307.5 and 331 and 502 and 476.5
- NM_003879 LUA#24 FlexMap level [1]: 225 and 1355.5 and 1937.5 and 1983.5 and 1275 and 1677 and 1564 and 923
- NM_004079 LUA#21 FlexMap level [1]: 350 and 2202 and 3008 and 3030.5 and 2326 and 2816 and 2701 and 1488
- NM_004095 LUA#59 FlexMap level [1]: 72 and 383 and 714 and 665 and 496.5 and 650.5 and 593.5 and 442
- NM_004106 LUA#44 FlexMap level [1]: 47 and 142 and 253.5 and 302 and 321 and 271 and 273.5 and 267
- NM_004134 LUA#76 FlexMap level [1]: 78 and 432.5 and 873 and 866 and 531 and 759 and 744 and 493
- NM_004152 LUA#31 FlexMap level [1]: 58 and 337 and 710 and 811 and 628.5 and 782 and 652 and 408.5
- NM_004514 LUA#46 FlexMap level [1]: 176 and 834 and 1159.5 and 1224 and 964 and 992 and 1017 and 626
- NM_004526 LUA#88 FlexMap level [1]: 642 and 1081.5 and 1122 and 840 and 1033 and 1012 and 641.5
- NM_004602 LUA#32 FlexMap level [1]: 458.5 and 678 and 736.5 and 1957 and 1765.5 and 664 and 571.5 and 773.5
- NM_004631 LUA#52 FlexMap level [1]: 86.5 and 322 and 705 and 629 and 524 and 633 and 667 and 532
- NM_004723 LUA#20 FlexMap level [1]: 89 and 620 and 1056 and 982 and 761 and 886 and 853 and 494.5
- NM_004741 LUA#89 FlexMap level [1]: 131 and 383 and 972 and 1003 and 933 and 920 and 1126 and 571
- NM_004759 LUA#37 FlexMap level [1]: 40.5 and 67.5 and 186.5 and 169 and 134.5 and 142 and 145 and 190
- NM_004782 LUA#4 FlexMap level [1]: 163 and 811 and 1306 and 1264 and 1063.5 and 1077 and 1094 and 639
- NM_005008 LUA#77 FlexMap level [1]: 73 and 425 and 885 and 923 and 779.5 and 801 and 828 and 525
- NM_005375 LUA#86 FlexMap level [1]: 273 and 1380 and 2455 and 2357.5 and 2068 and 2193 and 2264 and 1273.5
- NM_005566 LUA#85 FlexMap level [1]: 129.5 and 862.5 and 1842.5 and 1550 and 1000 and 1282 and 1196 and 592
- NM_005736 LUA#1 FlexMap level [1]: 92 and 522 and 909 and 1432 and 1896 and 847 and 1205.5 and 695
- NM_005914 LUA#60 FlexMap level [1]: 303 and 1363 and 2538.5 and 2273 and 1739 and 1694 and 1933.5 and 1154.5
- NM_005915 LUA#72 FlexMap level [1]: 48 and 300 and 495 and 474 and 315.5 and 496 and 401.5 and 256.5
- NM_005952 LUA#66 FlexMap level [1]: 104 and 573 and 891 and 961 and 623.5 and 847.5 and 775 and 571
- NM_005980 LUA#73 FlexMap level [1]: 35.5 and 83 and 102 and 162 and 149 and 95 and 114 and 168
- NM_006019 LUA#35 FlexMap level [1]: 41 and 192.5 and 363 and 400.5 and 353 and 361 and 402 and 332
- NM_006138 LUA#56 FlexMap level [1]: 70 and 325.5 and 443 and 659.5 and 488 and 437 and 429 and 341
- NM_006432 LUA#27 FlexMap level [1]: 90 and 394 and 854.5 and 800 and 695 and 670 and 719 and 450
- NM_006452 LUA#71 FlexMap level [1]: 207.5 and 1176 and 1736 and 1656.5 and 1374 and 1531 and 1587 and 911.5
- NM_006457 LUA#13 FlexMap level [1]: 36 and 51 and 83 and 94 and 84 and 95 and 132 and 200
- NM_006773 LUA#47 FlexMap level [1]: 164 and 717 and 1137 and 1120.5 and 783 and 937.5 and 907 and 576.5
- NM_006948 LUA#51 FlexMap level [1]: 34 and 49 and 82 and 95 and 83 and 79.5 and 85.5 and 106.5
- NM_006985 LUA#58 FlexMap level [1]: 90 and 720 and 1223 and 1310 and 813 and 1136.5 and 983 and 635
- NM_007282 LUA#16 FlexMap level [1]: 778.5 and 3067.5 and 3626 and 3678 and 3097 and 3055 and 2958.5 and 1505
- NM_007331 LUA#50 FlexMap level [1]: 88 and 474 and 915.5 and 927.5 and 770 and 739 and 835 and 583
- NM_013402 LUA#54 FlexMap level [1]: 114 and 705 and 1150 (2×) and 806 and 1051.5 and 1087 and 711
- NM_014288 LUA#48 FlexMap level [1]: 154 and 477.5 and 801 and 816 and 527.5 and 706 and 650 and 453
- NM_014333 LUA#26 FlexMap level [1]: 180.5 and 949.5 and 1577 and 1549 and 1309 and 1337 and 1390 and 811
- NM_014366 LUA#61 FlexMap level [1]: 383 and 1773 and 2236 and 2380 and 1850 and 1787.5 and 1681.5 and 1009.5
- NM_014573 LUA#70 FlexMap level [1]: 43 and 143 and 320 and 325 and 274 and 243 and 407.5 and 300
- NM_014962 LUA#5 FlexMap level [1]: 152.5 and 726 and 1269 and 1290 and 1213 and 1076 and 1134 and 717
- NM_015201 LUA#57 FlexMap level [1]: 182 and 1154 and 1768 and 1714 and 1251 and 1398.5 and 1507 and 930.5
- NM_016061 LUA#9 FlexMap level [1]: 134 and 674 and 1086 and 1267.5 and 863 and 975 and 1073.5 and 741
- NM_017440 LUA#49 FlexMap level [1]: 101 and 405.5 and 707 and 774 and 716 and 607 and 693 and 477
- NM_018115 LUA#63 FlexMap level [1]: 746.5 and 3193 and 3722 and 4141 and 3225.5 and 3292.5 and 3054 and 1569
- NM_018164 LUA#69 FlexMap level [1]: 52 and 170 and 429 and 380 and 304.5 and 304 and 358.5 and 234
- NM_018217 LUA#3 FlexMap level [1]: 189 and 990 and 1514 and 1581 and 1499 and 1286 and 1386 and 854.5
- NM_018256 LUA#83 FlexMap level [1]: 102 and 717 and 1252 and 1104 and 692.5 and 1077 and 929 and 470
- NM_018890 LUA#33 FlexMap level [1]: 562 and 2557 and 3812.5 and 4178 and 4310 and 3724.5 and 2984 and 1462.5
- NM_019058 LUA#75 FlexMap level [1]: 258 and 1804 and 2807 and 2882 and 2288 and 2430 and 2201 and 1184
- NM_020117 LUA#78 FlexMap level [1]: 236.5 and 1585 and 2193 and 2242.5 and 1690 and 1988 and 1734 and 848.5
- NM_021103 LUA#41 FlexMap level [1]: 591.5 and 1730 and 2238 and 2731 and 2283 and 1975 and 1828.5 and 1027
- NM_021203 (LUA#80) FlexMap level [1]: 53 and 171 and 386 and 377.5 and 283.5 and 348 and 279
- NM_021974 LUA#64 FlexMap level [1]: 268 and 1606 and 2307 and 2301 and 1472 and 1996 and 1890 and 1117.5
- NM_024045 LUA#65 FlexMap level [1]: 85 and 495 and 831 and 833.5 and 527 and 681 and 728.5 and 471
- NM_032571 LUA#15 FlexMap level [1]: 31 and 109 and 203 and 222.5 and 165.5 and 191 and 270.5 and 253.5
- NM_173823 LUA#6 FlexMap level [1]: 84 and 594.5 and 1106.5 and 1168.5 and 1130.5 and 1080 and 1163 and 807
- TFRC LUA#92 FlexMap level [1]: 89 and 400 and 794 and 910.5 and 811 and 827.5 and 1042 and 592
- NM_021203 (LUA#80) FlexMap level (HL60 microtiter well cultures, one value per tretinoin well): 416 and 381.5 and 345 and 387 and 409 and 426 and 427 and 412

— patent publication US20110015080A1, “Solution-based methods for RNA expression profiling” (MASSACHUSETTS INSTITUTE OF TECHNOLOGY, priority 2005, published 2011)
